Experimental data: US20240190855A1 (Relay Therapeutics, Inc., priority 2021, published 2024)

What follows are compounds tested against T1, CDK2/Cyclin E complex (Homo sapiens, UniProt P24941) (assay: CDK2/Cyclin E fluorescence-based microfluidic mobility shift assay (CDK2 Biochemical Caliper Assay)). Details: read-out: Biochemical CDK2/CyclinE Caliper IC50.
T1 construct: purchased Eurofins 14-475
Procedure: Compounds of the present disclosure were tested in a CDK2/Cyclin E fluorescence-based microfluidic mobility shift assay (PerkinElmer).
The active wild type CDK2/Cyclin E complex was purchased from Eurofins (14-475). Compound stocks were prepared in DMSO and were serially diluted into 11 concentrations by 3-fold dilution. […] Compounds were incubated in the presence of CDK2/Cyclin E complex and ATP for 30 minutes at room temperature. Catalytic reaction was initiated with the addition of 5 uL of a 4× peptide solution containing 6 uM fluorescently label substrate peptide, FL Peptide 18 (aa sequence 5-FAM-QSPKKG, PerkinElmer, 760362) in 1× reaction buffer.
The final reaction components were 0.1 nM CDK2/Cyclin E, 2000 uM ATP and 1.5 uM FL Peptide 18 and 1% DMSO. Reactions were incubated RT for 20 hr and terminated with 75 uL of a stopping solution containing 0.5 M EDTA. Samples were analyzed using a LabChip EZ reader (PerkinElmer).

IC50 [nM]	SMILES
100 to 250	Cc1cc(CC(=O)Nc2cc([C@H]3CC[C@@H](Cc4cn[nH]c4C(C)C)C3)[nH]n2)on1 (single isomer, unassigned) [Example 409]
≤ 100	COCc1cc(C(=O)Nc2cc([C@H]3CC[C@@H](Oc4nnccc4C(C)C)C3)[nH]n2)n(C)n1 (single isomer, unassigned) [Example 410]
≤ 100	COCc1cc(C(=O)Nc2cc([C@@H]3CC[C@H](Oc4nnccc4C(C)C)C3)[nH]n2)n(C)n1 (single isomer, unassigned) [Example 411]
≤ 100	COCc1cc(C(=O)Nc2cc([C@@H]3CC[C@H](Oc4nscc4C4CC4)C3)[nH]n2)n(C)n1 (single isomer, unassigned) [Example 413]
≤ 100	COCc1cc(C(=O)Nc2cc([C@H]3CC[C@@H](Oc4nscc4C4CC4)C3)[nH]n2)n(C)n1 (single isomer, unassigned) [Example 414]
250 to 1000	COCc1cc(C(=O)Nc2cc([C@H]3CC[C@@H](Oc4ccc(C(C)C)nn4)C3)[nH]n2)n(C)n1 (single isomer, unassigned) [Example 415]
1000 to 100000	CC(C)NC(=O)O[C@@H]1CC[C@H](c2cc(N)n[nH]2)C1 (single isomer, unassigned) [Example 417]
1000 to 100000	CC(C)NC(=O)O[C@H]1CC[C@@H](c2cc(N)n[nH]2)C1 (single isomer, unassigned) [Example 418]
1000 to 100000	COCc1cc(C(=O)Nc2cc([C@H]3CC[C@@](C)(CC(=O)NC(C)C)C3)[nH]n2)n(C)n1 (single isomer, unassigned) [Example 419]
1000 to 100000	COCc1cc(C(=O)Nc2cc([C@@H]3CC[C@](C)(CC(=O)NC(C)C)C3)[nH]n2)n(C)n1 (single isomer, unassigned) [Example 420]
≤ 100	CC(=O)Nc1cc([C@H]2CC[C@@H](Oc3nscc3C3CC3)C2)[nH]n1 (single isomer, unassigned) [Example 421]
≤ 100	CC(=O)Nc1cc([C@@H]2CC[C@H](Oc3nscc3C3CC3)C2)[nH]n1 (single isomer, unassigned) [Example 422]
≤ 100	CC(=O)Nc1nc2ccnc(Nc3cc([C@H]4CC[C@@H](OC(=O)NC(C)C)C4)[nH]n3)c2s1 (single isomer, unassigned) [Example 423]
≤ 100	CC(=O)Nc1nc2ccnc(Nc3cc(C4CC[C@H](OC(=O)NC(C)C)C4)[nH]n3)c2s1 (single isomer, unassigned) [Example 424]
≤ 100	CC(=O)Nc1cc([C@H]2CC[C@@H](Oc3nnccc3C(C)C)C2)[nH]n1 (single isomer, unassigned) [Example 427]
≤ 100	CC(=O)Nc1cc([C@@H]2CC[C@H](Oc3nnccc3C(C)C)C2)[nH]n1 (single isomer, unassigned) [Example 428]
250 to 1000	CC(C)NC(=O)O[C@@H]1CC[C@H](c2cc(NC=O)n[nH]2)C1 (single isomer, unassigned) [Example 440]
250 to 1000	CC(C)NC(=O)O[C@H]1CC[C@@H](c2cc(NC=O)n[nH]2)C1 (single isomer, unassigned) [Example 441]
≤ 100	Cc1cc(CC(=O)Nc2ncc([C@H]3CC[C@@H](OC(=O)NC(C)C)C3)s2)on1 (single isomer, unassigned) [Example 442]
≤ 100	Cc1cc(CC(=O)Nc2ncc([C@@H]3CC[C@H](OC(=O)NC(C)C)C3)s2)on1 (single isomer, unassigned) [Example 443]
≤ 100	COCc1nc2ccnc(Nc3cc([C@H]4CC[C@@H](Oc5nnccc5C(C)C)C4)[nH]n3)c2s1 (single isomer, unassigned) [Example 444]
≤ 100	COCc1nc2ccnc(Nc3cc([C@@H]4CC[C@H](Oc5nnccc5C(C)C)C4)[nH]n3)c2s1 (single isomer, unassigned) [Example 445]
1000 to 100000	COCc1cc(C(=O)Nc2cc([C@@H]3CC[C@@](C)(CC(=O)NC(C)C)C3)[nH]n2)n(C)n1 (single isomer, unassigned) [Example 447]
1000 to 100000	COCc1cc(C(=O)Nc2cc([C@H]3CC[C@](C)(CC(=O)NC(C)C)C3)[nH]n2)n(C)n1 (single isomer, unassigned) [Example 448]
1000 to 100000	COCc1cc(C(=O)Nc2cc([C@@H]3CC[C@H](Oc4ccc(C(C)C)nn4)C3)[nH]n2)n(C)n1 (single isomer, unassigned) [Example 449]
≤ 100	Cc1cc(CC(=O)Nc2cc([C@H]3CC[C@@H](OC(=O)[C@H](N)C(C)C)C3)[nH]n2)on1 (single isomer, unassigned) [Example 450]
100 to 250	Cc1cc(CC(=O)Nc2cc([C@@H]3CC[C@H](OC(=O)[C@H](N)C(C)C)C3)[nH]n2)on1 (single isomer, unassigned) [Example 451]

IC50 [nM]	SMILES
1000 to 100000	Cc1cc(CC(=O)Nc2cc([C@H]3CC[C@@H](NC(=O)[C@H](O)C(C)C)C3)[nH]n2)on1 (single isomer, unassigned) [Example 452]
1000 to 100000	Cc1cc(CC(=O)Nc2cc([C@@H]3CC[C@H](NC(=O)[C@H](O)C(C)C)C3)[nH]n2)on1 (single isomer, unassigned) [Example 453]
≤ 100	CCOC(=O)c1cc2c(Nc3cc([C@H]4CC[C@@H](OC(=O)NC(C)C)C4)[nH]n3)nc(C)cn2n1 (single isomer, unassigned) [Example 462]
≤ 100	CCOC(=O)c1cc2c(Nc3cc([C@@H]4CC[C@H](OC(=O)NC(C)C)C4)[nH]n3)nc(C)cn2n1 (single isomer, unassigned) [Example 463]
≤ 100	COCc1nc2ccnc(Nc3cc([C@@H]4C[C@H](OC(=O)NC(C)C)CO4)[nH]n3)c2s1 (single isomer, unassigned) [Example 466]
100 to 250	COCc1nc2ccnc(Nc3cc([C@H]4C[C@@H](OC(=O)NC(C)C)CO4)[nH]n3)c2s1 (single isomer, unassigned) [Example 467]
100 to 250	Cc1cc(CC(=O)Nc2cc([C@H]3CC[C@@H](OC(=O)[C@@H](N)C(C)C)C3)[nH]n2)on1 (single isomer, unassigned) [Example 468]
250 to 1000	Cc1cc(CC(=O)Nc2cc([C@@H]3CC[C@H](OC(=O)[C@@H](N)C(C)C)C3)[nH]n2)on1 (single isomer, unassigned) [Example 469]
≤ 100	COCc1cc(C(=O)Nc2cc([C@H]3CC[C@@H](Oc4nnccc4C4CC4)C3)[nH]n2)n(C)n1 (single isomer, unassigned) [Example 470]
≤ 100	COCc1cc(C(=O)Nc2cc([C@@H]3CC[C@H](Oc4nnccc4C4CC4)C3)[nH]n2)n(C)n1 (single isomer, unassigned) [Example 471]
100 to 250	COCc1cc(C(=O)Nc2cc([C@H]3CC[C@@H](Oc4cccnc4C(C)C)C3)[nH]n2)n(C)n1 (single isomer, unassigned) [Example 472]
100 to 250	COCc1cc(C(=O)Nc2cc([C@@H]3CC[C@H](Oc4cccnc4C(C)C)C3)[nH]n2)n(C)n1 (single isomer, unassigned) [Example 473]
100 to 250	COCc1cc(C(=O)Nc2cc([C@H]3CC[C@@H](Oc4nnccc4-c4ccccc4)C3)[nH]n2)n(C)n1 (single isomer, unassigned) [Example 474]
≤ 100	COCc1cc(C(=O)Nc2cc([C@@H]3CC[C@H](Oc4nnccc4-c4ccccc4)C3)[nH]n2)n(C)n1 (single isomer, unassigned) [Example 475]
≤ 100	COCc1cc(C(=O)Nc2cc([C@H]3CC[C@@H](Oc4nnccc4C(F)(F)F)C3)[nH]n2)n(C)n1 (single isomer, unassigned) [Example 476]
≤ 100	COCc1cc(C(=O)Nc2cc([C@@H]3CC[C@H](Oc4nnccc4C(F)(F)F)C3)[nH]n2)n(C)n1 (single isomer, unassigned) [Example 477]
1000 to 100000	COCc1cc(C(=O)Nc2cc([C@@H]3CC[C@H](Oc4c(C)ccnc4C)C3)[nH]n2)n(C)n1 (single isomer, unassigned) [Example 478]
1000 to 100000	COCc1cc(C(=O)Nc2cc([C@H]3CC[C@@H](Oc4c(C)ccnc4C)C3)[nH]n2)n(C)n1 (single isomer, unassigned) [Example 479]
≤ 100	COCc1cc2c(Nc3cc([C@H]4CC[C@@H](OC(=O)NC(C)C)C4)[nH]n3)nccn2n1 (single isomer, unassigned) [Example 480]
≤ 100	COCc1cc2c(Nc3cc([C@@H]4CC[C@H](OC(=O)NC(C)C)C4)[nH]n3)nccn2n1 (single isomer, unassigned) [Example 481]
1000 to 100000	Cc1cc(CC(=O)Nc2cc([C@H]3CC[C@@H](NC(=O)[C@@H](O)C(C)C)C3)[nH]n2)on1 (single isomer, unassigned) [Example 482]
250 to 1000	Cc1cc(CC(=O)Nc2cc([C@@H]3CC[C@H](NC(=O)[C@@H](O)C(C)C)C3)[nH]n2)on1 (single isomer, unassigned) [Example 483]
250 to 1000	Cc1ncccc1O[C@@H]1CC[C@H](c2cc(Nc3nccn4nccc34)n[nH]2)C1 (single isomer, unassigned) [Example 484]
≤ 100	Cc1ncccc1O[C@H]1CC[C@@H](c2cc(Nc3nccn4nccc34)n[nH]2)C1 (single isomer, unassigned) [Example 485]
1000 to 100000	Cc1ncccc1O[C@@H]1CC[C@H](c2cc(Nc3ncnc4ncccc34)n[nH]2)C1 (single isomer, unassigned) [Example 486]
≤ 100	Cc1ncccc1O[C@H]1CC[C@@H](c2cc(Nc3ncnc4ncccc34)n[nH]2)C1 (single isomer, unassigned) [Example 487]
